Where two headings read alike, the source gives them in different places.
Legend:
HIVNL4-3 JF26/A7 = conditions: NL4-3cloneJF26/A7, combined with L-CCA
Description: (§1) For each of these HIV clones, the ED50 was determined for the anti-HIV compounds ZDV, DDC, DDI, the protease inhibitor (PI) Nelfinavir (provided by Agouron Pharmaceuticals, San Diego), and L-CCA.
(§2) Molecular clones of HIV included wild-type HIVNL4-3, HIVNL4-3 M184V, and HIVNL4-3 JF26/A7, All three clones were a generous gift from P. Krogstad (UCLA, Los Angeles, Calif.). Viruses were initially, transfected in adherent HeLa cells using Lipofectin®. After 48 hours, H9 cells were added. Following 24 hours of co-culture, non-adherent cells were removed and cultured. Cells were monitored by indirect immunofluorescence and RT release as described below until the culture was 100% infected by HIV-1. Supernatant fluids were collected and clarified of cells by low-speed centrifugation followed by filtration through 0.45 μm filters.
(§3) Anti-HIV activity of compounds was determined both alone and in combination using a cytopathicity based assay as described above. […] The fifty-percent effective dose (ED50) was calculated for triplicate infections. Mean ED50 (shown in FIG. 5) were calculated for each drug against each HIV variant from a minimum of three experiments performed in triplicate.
(§4) Experiments were designed at a fixed ratio of drugs; the ratio for each drug combination was determined based on the ED50 of each drug alone against each HIV variant. Combination indices were calculated on representative experiments performed in triplicate according to the following formula of Chou and Talalay: fa/fu=(D/Dm)^m
(§5) Where fa is the fraction affected by the dose, fu is the unaffected fraction, D is the dose of the drug, Dm is the median-effect dose determined to be the x-intercept of the median-effect plot, and m is the sigmoidicity of the dose-effect curve, determined by the slope of the median-effect plot. The median effect plot is based on the following equation: log(fa/fu)=^m log (D)−m log (Dm)

HIVNL4-3 clone 7-1 = format: cell-based, HIV-1; conditions: NL4-3clone7-1, combined with L-CCA
HIVNL4-3 M184V = format: cell-based, HIV-1; conditions: for concentration of the drug in the combination with L-CCA giving Fa: NL4-3cloneM184V, combined with L-CCA
Description: as §1, §2, §3, §4, §5

HIVLAI = test: Anti-HIV assay, protection from HIV-induced cell death; format: cell-based; conditions: Human immunodeficiency virus 1, MT2, 72 h, read-out: ED50 (concentration that inhibits HIV-induced cell death by 50%)
Description: Anti-HIV assays were performed as described above. […] The compounds were then two-fold serially diluted in triplicate. To each 50 μl of diluted compound, 50 μl of HIVLAI was added and the virus-drug mixture was incubated for 1 hr at 37° C. […] Final multiplicity of infection (MOI) was 1-5. Cells were harvested to quantitate cytopathic effect using a neutral red dye assay as described.

HIV-1 IN = HIV-1 IN (Human immunodeficiency virus type 1 group M subtype B, UniProt P12497); test: biochemical
MT-2 cells = conditions: 48 hours
From the text: The chemical structures of the compounds are illustrated in FIGS. 1-4. In FIG. 1a, the D- and meso-isomers of L-chicoric acid are identical in this illustrative format. […] The first compound in Table 1, L-chicoric acid, a previously described DCTA, is included for reference. LD5, the 5% lethal dose, is a measure of the toxicity of compound to living, cultured cells. It is the concentration at which cell growth is inhibited by 5%. […] Most simply understood, disintegration is a term used to refer to the reverse of integration.
Cell toxicity and anti-HIV assays were performed as reported above. […] Cells were incubated with drug for 48 hours at 37° C., then harvested for cell viability in a neutral red dye assay as described.

Cc1c(O)cccc1C(=O)N[C@@H](CSc1ccccc1)[C@H](O)CN1C[C@H]2CCCC[C@H]2C[C@H]1C(=O)NC(C)(C)C [Nelfinavir]
concentration of the drug in the combination with L-CCA giving Fa (HIVNL4-3 JF26/A7; Fa 0.2): 4.6 nM
concentration of the drug in the combination with L-CCA giving Fa (HIVNL4-3 JF26/A7; Fa 0.4): 7.0 nM
concentration of the drug in the combination with L-CCA giving Fa (HIVNL4-3 JF26/A7; Fa 0.6): 10.0 nM
concentration of the drug in the combination with L-CCA giving Fa (HIVNL4-3 JF26/A7; Fa 0.8): 15.1 nM
concentration of the drug in the combination with L-CCA giving Fa (HIVNL4-3 JF26/A7; Fa 0.9): 21.3 nM
concentration of the drug in the combination with L-CCA giving Fa (HIVNL4-3 clone 7-1; Fa 0.2): 2.9 nM
concentration of the drug in the combination with L-CCA giving Fa (HIVNL4-3 clone 7-1; Fa 0.4): 4.9 nM
concentration of the drug in the combination with L-CCA giving Fa (HIVNL4-3 clone 7-1; Fa 0.6): 7.6 nM
concentration of the drug in the combination with L-CCA giving Fa (HIVNL4-3 clone 7-1; Fa 0.8): 13.1 nM
concentration of the drug in the combination with L-CCA giving Fa (HIVNL4-3 clone 7-1; Fa 0.9): 20.3 nM
concentration of the drug in the combination with L-CCA giving Fa (HIVNL4-3 M184V; Fa 0.2): 2.5 nM
concentration of the drug in the combination with L-CCA giving Fa (HIVNL4-3 M184V; Fa 0.4): 4.7 nM
concentration of the drug in the combination with L-CCA giving Fa (HIVNL4-3 M184V; Fa 0.6): 7.9 nM
concentration of the drug in the combination with L-CCA giving Fa (HIVNL4-3 M184V; Fa 0.8): 14.8 nM
concentration of the drug in the combination with L-CCA giving Fa (HIVNL4-3 M184V; Fa 0.9): 24.8 nM

O=C(C=Cc1ccc(O)c(O)c1)Nc1ccc(C(=O)O)cc1NC(=O)C=Cc1ccc(O)c(O)c1 [Compound 36, Bis-3,4-dicaffeoyldiamidobenzoic acid]
EC50 (HIVLAI): 4.6 µM
IC50 (HIV-1 IN): 0.734 µM
LD5 (5% lethal dose, concentration at which cell growth is inhibited by 5%) (MT-2 cells): 47 µM

O=C(/C=C/c1ccc(O)c(O)c1)OC[C@H](OC(=O)/C=C/c1ccc(O)c(O)c1)C(=O)O [Compound 19, Dicaffeoyl-L-glyceric acid]
EC50 (HIVLAI): 2.3 µM
IC50 (HIV-1 IN): 0.52 µM
LD5 (5% lethal dose, concentration at which cell growth is inhibited by 5%) (MT-2 cells): 145 µM

OC[C@@H]1CC[C@H](n2cnc3c(O)ncnc32)O1 [DDI, 2′,3′-dideoxyinosine]
susceptibility of the clone to the drug alone (HIVNL4-3 M184V; clone with methionine to valine mutation in RT): partial resistance

O=C(O)C(=Cc1ccc(O)c(O)c1)C(=Cc1ccc(O)c(O)c1)C(=O)O [Compound 37, Di-3,4-dihydroxybenzylidene succinic acid]
EC50 (HIVLAI): 8.7 µM
IC50 (HIV-1 IN): 2.19 µM
LD5 (5% lethal dose, concentration at which cell growth is inhibited by 5%) (MT-2 cells): 35 µM

O=C(C=Cc1ccc(O)c(O)c1)NCCCCC(NC(=O)C=Cc1ccc(O)c(O)c1)C(=O)O [Compound 41, 1,4-dicaffeoyl-L-lysine]
EC50 (HIVLAI): 3.7 µM
IC50 (HIV-1 IN): 2.23 µM
LD5 (5% lethal dose, concentration at which cell growth is inhibited by 5%) (MT-2 cells): 29.2 µM

— US20050049242A1 (priority 2000, published 2005)
